Measurements: US20090023771A1, “PHARMACEUTICAL COMPOSITION COMPRISING A PROTON PUMP INHIBITOR AND PROTEIN COMPONENT” (The Curators of the University of Missouri, priority 2007, published 2009)

Assay: Degradation of omeprazole (PPI) by stomach acid when combined with buffering agent and/or protein component (FIGS. 1-6)
Type: physicochemical
Settings: 40 mg omeprazole with 800 mg aluminum glycinate and 800 mg sodium bicarbonate (20:1 each); FIGS. 5 and 6; compared with sodium bicarbonate and omeprazole alone (FIGS. 3 and 4)
Experimental: FIG. 2 is a line graph illustrating the degradation of 40 mg omeprazole when it is administered with 800 mg of L-carnosine and 800 mg sodium bicarbonate (20:1 ratio of L-carnosine to omeprazole and sodium bicarbonate to omeprazole). FIG. 4 is a line graph illustrating the degradation of 40 mg omeprazole when it is administered with 1600 mg sodium bicarbonate (40:1 ratio). FIG. 6 is a line graph illustrating the degradation of 40 mg omeprazole when it is administered with 800 mg of aluminum glycinate and 800 mg sodium bicarbonate (20:1 ratio of aluminum glycinate to omeprazole and sodium bicarbonate to omeprazole).

## COc1ccc2[nH]c([S+]([O-])Cc3ncc(C)c(OC)c3C)nc2c1 (stereo not shown) [omeprazole]
  degradation of the omeprazole: immediate degradation
